The values that follow are results of earlier work, collected in patent publication US20060204442A1, “Magnetically targetable particles comprising magnetic components and biocompatible polymers for site-specific delivery of biologically active agents” (Bankruptcy Estate of Ferx, Inc., priority 2003, published 2006).

This data set concerns cell lines of the national Cancer Institute's Anticancer Drug Screen Panel. Conditions: Rixe et al., Biochem Pharmacol 52.

In the case of `[NH2][Pt]([NH2])([Cl])[Cl]` [CDDP, cisplatin], the “IC50, published value” was 0.537 µg/mL.
